Results: PubChem BioAssay (NCI)
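Dose response: 5 concentrations. Exposure: 48 h. Format: 96-well plates. Endpoint: linear interpolation; highest concentration if not reached. At the GI50, growth is halved. TGI is the concentration that stops growth completely.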

Key:
Experiment in all cases: growth of human tumour cells (NCI), 48 h
[1] = system: BT-549 breast
[2] = system: K-562 leukemia
[3] = system: M14 melanoma
[4] = system: MDA-MB-435
[5] = system: OVCAR-4 ovarian
[6] = system: OVCAR-5 ovarian
[7] = system: SF-295 CNS
[8] = system: SK-MEL-2 melanoma
[9] = system: U251 CNS
[10] = system: UO-31 renal

Structure (SMILES)	TGI [1]	TGI [2]	TGI [3]	TGI [4]	TGI [5]	TGI [6]	TGI [7]	TGI [8]	TGI [9]	TGI [10]	GI50 [3]	GI50 [4]	GI50 [5]	GI50 [6]	GI50 [7]	GI50 [8]	GI50 [9]	GI50 [10]	GI50 [1]	GI50 [2]
CCCCCCCCCCCCCCCC(=O)N(CCCCCCCCCCC(=O)O)CC(O)C(O)C(OC1OC(CO)C(O)C(O)C1O)C(O)CO (centres undefined)	68 µM	41.4 µM	50.2 µM	> 100 µM	> 100 µM	> 100 µM	33.4 µM	43.5 µM	32.9 µM	> 100 µM										
O=C(Cc1ccccc1)Nn1c(-c2ccccc2)nc2ccccc2c1=O	> 100 µM	> 100 µM	> 100 µM	> 100 µM	> 100 µM	> 100 µM	> 100 µM		> 100 µM	> 100 µM										
CCOC(=O)C(NC(=O)c1ccccc1)(N1CCOCC1)C(F)(F)F (centres undefined)	> 100 µM	> 100 µM	> 100 µM	> 100 µM	> 100 µM	> 100 µM	> 100 µM	> 100 µM	> 100 µM	> 100 µM										
CC[C@H]1C=CCC[C@@]2(C[C@@H]3CC[C@H]4[C@@H](C(=O)OCCCCCCCCCCCCCCCC(=O)N(CCCN)C[C@@H](O)CCN)[C@@]5(CCC[C@@H](C)O5)NC(=[N+]34)N2)O1	4.41 µM	3.18 µM	3.82 µM	2.88 µM	> 10 µM	3.22 µM	3.68 µM	3.29 µM	3.05 µM	> 10 µM										
O=C(O)CC1NCc2cc3ccccc3nc21 (centres undefined)	> 100 µM	> 100 µM	> 100 µM	> 100 µM	> 100 µM	> 100 µM	> 100 µM	> 100 µM	> 100 µM	> 100 µM										
FC(F)(F)c1cccc(-c2nc3ccccc3c3c2[C@@]2(N4CCCC4)CCCC[C@@H]32)c1		> 100 µM	> 100 µM	59.3 µM	> 100 µM	> 100 µM	74.7 µM	41.3 µM	71.4 µM	48.9 µM										
Nc1nc(N)c2cc(NCc3ccc(Cl)c(Cl)c3)ccc2n1			2.16 µM	2.4 µM	2.61 µM	2.19 µM	2.61 µM	3.37 µM	2.37 µM	2.89 µM	0.841 µM	1.11 µM	1.34 µM	1.02 µM	1.22 µM	1.82 µM	1.12 µM	1.35 µM		
N#Cc1c(-c2ccccc2)c(N=Nc2ccc(Cl)cc2)c(=O)n2c1[nH]c1ccccc12	> 100 µM		> 100 µM	> 100 µM	85.6 µM	> 100 µM	> 100 µM	> 100 µM	> 100 µM	> 100 µM										
CCCCCCCCCCCCOCCCOP(=O)([O-])OCC[N+](C)(C)C	33.1 µM	> 76.5 µM	98.2 µM	> 70 µM	> 100 µM	> 100 µM	> 100 µM	> 100 µM	47.7 µM	> 89.5 µM										
CN(C)C(=O)OC(Cn1cncn1)(Cn1cncn1)c1ccc(Cl)cc1Cl	> 100 µM	> 100 µM	> 100 µM	> 100 µM	> 100 µM	> 100 µM	> 100 µM	> 100 µM	> 100 µM	> 100 µM										
COC(C)(C)C1(O)CCC(C)CC1=O (centres undefined)	> 100 µM		> 100 µM	> 100 µM	> 100 µM	> 100 µM	> 100 µM		> 100 µM	> 100 µM										
C=CCO[C@]1(CC=C)C(=O)C(=O)OC1C1COC(C)(C)O1 (some centres undefined)		> 100 µM		> 100 µM		> 100 µM	> 100 µM		> 100 µM	> 100 µM										
COC(=O)[C@H](Cc1c[nH]c2ccccc12)NC(=O)c1ccc(CNC(=O)/C=C/c2cccc(Oc3ccccc3)c2)cc1	> 100 µM	> 100 µM	> 100 µM	27.8 µM	> 100 µM	> 100 µM	> 100 µM	82.8 µM	> 100 µM	> 100 µM										
COc1cc2c(=O)cnoc2cc1O	> 100 µM	> 100 µM	> 100 µM	> 100 µM	> 100 µM	> 100 µM	> 100 µM	> 100 µM	> 100 µM	> 100 µM										
C/C=C/C1OC(O)(C(C)C(O)[C@H](C)C2OC(=O)/C(OC)=C/C(C)=C/[C@@H](C)[C@@H](O)[C@@H](C)C(O)C(C)C/C(C)=C/C=C/C2OC)C[C@@H](OC2CC(O)C(OC(N)=O)C(C)O2)C1C (some centres undefined)	12 µM		< 0.01 µM	2.58 µM	18.9 µM	3.14 µM	< 0.01 µM	< 0.01 µM	8.91 µM	13.8 µM										
O=C(NCc1cccc2ccccc12)N/N=C\c1ccc(Cl)cc1	> 100 µM	> 100 µM	> 100 µM	> 100 µM	> 100 µM	> 100 µM	> 100 µM	> 100 µM	> 100 µM	> 100 µM										
Cc1ccc(/C(O)=C/c2nc3ccccc3s/c2=N/CS(=O)(=O)c2ccc(C)cc2)cc1	> 10 µM	> 10 µM	> 10 µM	> 10 µM	> 10 µM	> 10 µM	> 10 µM		> 10 µM											
Oc1ccc(Cl)cc1CN1CCN(Cc2cc(Cl)ccc2O)C1		5.86 µM	2.87 µM	7.92 µM	17 µM	16.9 µM	7.73 µM	4.45 µM	15 µM	2.19 µM										
Cc1ccc2oc(=O)c(C(=O)Nc3nc(C45CC6CC(CC(C6)C4)C5)cs3)cc2c1	> 100 µM	> 100 µM		> 100 µM	> 100 µM	> 100 µM	> 100 µM		> 100 µM	> 100 µM										
O=C(CNc1ccccc1[N+](=O)[O-])Nn1c(-c2ccccc2)nc2ccccc2c1=O	35.3 µM	41.9 µM	38.1 µM	60.1 µM	32.1 µM	41.3 µM	46.5 µM		40.6 µM	33.7 µM										
O=C(N/N=C(/COc1ccc([N+](=O)[O-])cc1)N=Cc1ccncc1)c1ccncc1	> 100 µM	> 100 µM	> 100 µM	> 100 µM	> 100 µM	> 100 µM	> 100 µM	> 100 µM	> 100 µM											
COc1cc2c(cc1OC)C1(COc3cc(O)c(O)c(O)c3C1=O)C2 (centres undefined)		> 50 µM	> 50 µM	> 50 µM	> 50 µM	> 50 µM	> 50 µM	> 50 µM	> 50 µM	> 50 µM										

Structure (SMILES)	TGI [1]	TGI [2]	TGI [3]	TGI [4]	TGI [5]	TGI [6]	TGI [7]	TGI [8]	TGI [9]	TGI [10]	GI50 [3]	GI50 [4]	GI50 [5]	GI50 [6]	GI50 [7]	GI50 [8]	GI50 [9]	GI50 [10]	GI50 [1]	GI50 [2]
CCOC(=O)c1sc2[n+](c1C)C(=O)/C(=C/c1ccc([N+](=O)[O-])cc1)S2		83.4 µM	> 100 µM	46.2 µM	> 100 µM	> 100 µM	64.4 µM	51.2 µM	40.3 µM	33.4 µM										
CCOC(=O)CNc1nc(=O)c2c(=O)oc(Cl)cc2o1		24.4 µM	49.1 µM	35.4 µM	34.3 µM	38.7 µM	> 100 µM	44.5 µM	85.3 µM	25.4 µM										
CCOC(=O)CC1(c2cccc3ccccc23)OC(=O)c2ccccc21 (centres undefined)		> 100 µM			> 100 µM	> 100 µM	> 100 µM	> 100 µM	> 100 µM	65.9 µM										
CC1=NN(c2nc(N)nc(CC#N)n2)C(C)(C)C1	> 100 µM	> 100 µM	> 100 µM	> 100 µM	> 100 µM		> 100 µM	> 100 µM	> 100 µM	> 100 µM										
O=CC12C3CCC1C2C(=O)C3 (centres undefined)	> 100 µM	> 100 µM	> 100 µM	> 100 µM	> 100 µM	> 100 µM	> 100 µM	> 100 µM	> 100 µM											
CC1(C)C2CC(=O)C1(C)C(OCc1ccccc1)C2 (centres undefined)	> 100 µM	77.6 µM	71.3 µM	> 100 µM		> 100 µM	> 100 µM	> 100 µM	> 100 µM	> 100 µM										
Cc1ccc2nc(-c3ccc(N4C(=O)C(Cl)C4c4ccc(Cl)cc4)cc3)sc2c1 (centres undefined)	> 100 µM	60.2 µM	57 µM	36.6 µM	8.38 µM	45.3 µM	32.1 µM		42.4 µM	45.8 µM										
CC(C)C1=CC23CCC4C(C)(C(=O)O)CCCC4(C)C2CC1C1C(=O)N(c2ccccc2)C(=O)C13 (centres undefined)		> 100 µM	> 100 µM		> 100 µM	> 100 µM	> 100 µM	73.3 µM	> 100 µM	> 100 µM										
CC(C)C(/C=C/c1ccc(Cl)c(Cl)c1)=N\NC(=O)N/N=C(/C=C/c1ccc(Cl)c(Cl)c1)C(C)C	> 100 µM	> 100 µM	> 100 µM	> 100 µM	> 100 µM	> 100 µM	> 100 µM		> 100 µM	> 100 µM										
CC(C)C(N)=O		> 5000 µM	> 5000 µM		> 5000 µM	> 5000 µM	> 5000 µM	> 5000 µM	> 5000 µM	> 5000 µM										
CCOP(=O)(OCC)C(N)c1ccc(Cl)cc1 (centres undefined)	> 100 µM		> 100 µM	> 100 µM	> 100 µM	> 100 µM		> 100 µM	> 100 µM											
CCCCON1C[C@H](OC(C)=O)C(OC(C)=O)[C@H](OC(C)=O)C1 (some centres undefined)	> 100 µM	> 100 µM	> 100 µM	> 100 µM	> 100 µM		> 100 µM	> 100 µM	> 100 µM	> 100 µM										
Cc1csc(/N=C\c2c(O)c3ccccc3oc2=O)n1	> 100 µM	> 100 µM	> 100 µM	> 100 µM	> 100 µM	> 100 µM		49.5 µM	> 100 µM	75.9 µM										
S=C(c1c[nH]c2ccccc12)N1CCN(Cc2ccccc2)CC1	32.4 µM	> 100 µM	26.9 µM	28.8 µM		30.5 µM	29 µM	34.1 µM	33.6 µM	21.5 µM										
CC1=Nc2sc3c(c2C2=NCCN12)CCCC3	43.4 µM	> 100 µM		91.6 µM	> 100 µM	92 µM	98.7 µM	84.5 µM	70.7 µM	50.5 µM										
c1csc(C[N+]23CN4CN(CN(C4)C2)C3)c1		48.8 µM	32.2 µM		49 µM	67.3 µM	> 100 µM	37.3 µM	45.7 µM	> 100 µM										
Cc1ccc(N(CC(=O)Nc2ccc(S(=O)(=O)N3CCC(N4CCCC4)CC3)cc2)S(=O)(=O)c2ccc(Cl)cc2)cc1	3.31 µM	2.75 µM	3.39 µM	3.14 µM			3.42 µM	3.92 µM	2.98 µM	3.27 µM	1.71 µM	1.69 µM			1.74 µM	1.95 µM	1.56 µM	1.6 µM	1.68 µM	0.566 µM
CC(=O)NC1=C[C@@H]([C@H]2COC(C)(C)O2)OC1=O		> 100 µM				> 100 µM	> 100 µM	> 100 µM	> 100 µM	> 100 µM										
O=C1CCCCCCCCCCC1CN1CCCCC1 (centres undefined)		> 100 µM			> 100 µM	> 100 µM	> 100 µM	> 100 µM	> 100 µM	> 100 µM										
CC(=O)N=C1N(/C=C2\C(=O)Oc3ccccc3C2=O)C(=O)/C(=C/c2ccc(NC(C)=O)cc2)N1C		> 100 µM	> 100 µM	> 100 µM	> 100 µM	> 100 µM	> 100 µM	> 100 µM	> 100 µM											
CC1C2(C)OC(=N)C(C#N)(C(c3cccc([N+](=O)[O-])c3)O2)C1(C#N)C#N (centres undefined)	> 100 µM	> 100 µM	38.7 µM			> 100 µM	> 100 µM	61.7 µM	53.8 µM	> 100 µM										
C=C1C(=O)O[C@@H]2C=C(C)C3=CC(=O)[C@](C)(C[C@H](OC(=O)/C(C)=C\C)[C@@H]12)O3	1.98 µM	2.04 µM	2.46 µM	3.74 µM		3.86 µM	6.47 µM	6.73 µM	4.85 µM	2.37 µM										
